Experimental data: patent publication US8846715B2, “(2S,3R)-N-(2((3-pyridinyl)methyl)-1-azabicyclo[2.2.2]oct-3-yl)benzofuran-2-carboxamide novel salt forms, and methods of use thereof” (Targacept, Inc., priority 2007, dated 2014)
Entries after “also recorded” stand apart in the source; their conditions may differ.

Experiments:
[1] = Water solubility (salt screening); assay type: physicochemical
Experimental: Thermodynamic Aqueous Solubility by HPLC
The suspension was equilibrated at 25° C. for 24 h, and then the pH was measured. The suspension was then filtered through a glass fiber C filter into a 96 well plate. The filtrate was then diluted by a factor of 101. Quantitation was by HPLC with reference to a standard solution of approximately 0.1 mg/mL in DMSO. Different volumes of the standard, diluted and undiluted sample solutions were injected. The solubility was calculated using the peak areas determined by integration of the peak found at the same retention time as the principal peak in the standard injection. If there was sufficient solid in the filter plate, the XRPD was collected.

[2] = Hygroscopicity (salt screening); assay type: physicochemical
Experimental: Sorption isotherms were determined on either or both of two instruments. Some were experiments were run using a VTI Corporation SGA-100 moisture sorption analyzer, controlled by VTI FlowSystem 4 software. The sample temperature was maintained at 25° C. with the aid of a Polyscience constant temperature bath. The humidity was controlled by mixing streams of dry and wet nitrogen. The weight change as a function of % RH was monitored using a Cahn Digital Recording Balance D-200 with an accuracy of +/−0.0001 g.
Typically a 10-20 mg sample was placed on the tared balance pan under ambient conditions. The sample was dried at 50° C. for 1 h. The standard adsorption isotherm was performed at 25° C. at 5% RH intervals over a 5-95% RH range, and the desorption isotherm was similarly done at 25° C. at 5% RH intervals over a 95-5% RH range. Sample equilibration criteria included 0.0100 wt % in 5 min or a maximum equilibration time of 180 min for each % RH data point.
Some sorption isotherms were obtained using a Hiden IGASorp moisture sorption analyser, controlled by CFRSorp software. The sample temperature was maintained at 25° C. by a Huber re-circulating water bath. The humidity was controlled by mixing streams of dry and wet nitrogen, with a total flow rate of 250 mL/min. The relative humidity was measured by a calibrated Vaisala RH probe (dynamic range of 0-95% RH), located near the sample. The weight change, (mass relaxation) of the sample as a function of % RH was constantly monitored by the microbalance (accuracy ±0.001 mg). Typically 10-20 mg of sample was placed in a tared mesh stainless steel basket under ambient conditions. The sample was loaded and unloaded at 40% RH and 25° C. (typical ambient conditions). A moisture sorption isotherm was performed as outlined below (2 scans giving 1 complete cycle). The standard isotherm was performed at 25° C. at 10% RH intervals over a 0-90% RH range.
The software uses a least squares minimization procedure together with a model of the mass relaxation, to predict an asymptotic value. The measured mass relaxation value must be within 5% of that predicted by the software, before the next % RH value is selected. The minimum equilibration time was set to 1 h and the maximum to 4 h. Typically, samples were recovered after completion of the isotherm and re-analyzed by XRPD.

[3] = Radial arm maze (RAM) paradigm; assay type: in vivo; conditions: p.o. 30 minutes prior to daily session, 0.3 mg/kg, second week (FIG. 7)
From the text: FIG. 7 illustrates an assessment of cognitive effects in a radial arm maze (RAM) paradigm.

[4] = target: rat α7 NNRs stably expressed in GH4C1 (mammalian) cells (Rattus norvegicus, UniProt Q05941); experiment: Patch clamp electrophysiology, rat α7 NNR in GH4C1 cells
Experimental: Electrophysiological measurement of α7 NNR response were taken in two expression systems: rat α7 NNR in mammalian GH4C1 cells and human α7 NNR in Xenopus oocytes.
Electrophysiological measurements of agonist activity were achieved using the Dynaflow rapid perfusion system and patch clamp using this GH4C1 cell expression system.
Whole-cell currents recorded with an Axopatch 700A amplifier were filtered at 1 kHz and sampled at 5 kHz by a PCI card (National Instrument). […] Cells were recorded at room temperature in the following extracellular medium: 130 mM NaCl, 5 mM KCl, 2 mM CaCl2, 2 mM MgCl2, 10 mM HEPES, adjusted to pH 7.4 with aqueous NaOH. […] Under these conditions, the macro-current activity obtained with NNR whole-cell recording lasts up to 60 min when elicited with a 1000 μM acetylcholine (ACh) concentration.
Cell handling procedures were adopted from Cellectricon application notes for Dynaflow. Briefly, after removal from the incubator, cells were washed thoroughly three times with recording medium and placed on the stage of a inverted Zeiss microscope. On average 5 min was necessary before the whole-cell recording configuration was established. To avoid modification of the cell conditions, a single cell was recorded per single load of cells into Dynaflow silicon chip. […] Cells were held at −60 mV throughout the experiment. […]

rats [5] = experiment: MK-801 induced deficits in the OR task; assay type: in vivo; conditions: 0.3 and 1 mg/kg i.p. (FIGS. 5A, 5B)
M1 muscarinic receptors = target: T1, M1 muscarinic receptors (Homo sapiens, UniProt P11229); experiment: Competitive binding inhibition, M1 muscarinic
T1 sequence (P11229 1-460): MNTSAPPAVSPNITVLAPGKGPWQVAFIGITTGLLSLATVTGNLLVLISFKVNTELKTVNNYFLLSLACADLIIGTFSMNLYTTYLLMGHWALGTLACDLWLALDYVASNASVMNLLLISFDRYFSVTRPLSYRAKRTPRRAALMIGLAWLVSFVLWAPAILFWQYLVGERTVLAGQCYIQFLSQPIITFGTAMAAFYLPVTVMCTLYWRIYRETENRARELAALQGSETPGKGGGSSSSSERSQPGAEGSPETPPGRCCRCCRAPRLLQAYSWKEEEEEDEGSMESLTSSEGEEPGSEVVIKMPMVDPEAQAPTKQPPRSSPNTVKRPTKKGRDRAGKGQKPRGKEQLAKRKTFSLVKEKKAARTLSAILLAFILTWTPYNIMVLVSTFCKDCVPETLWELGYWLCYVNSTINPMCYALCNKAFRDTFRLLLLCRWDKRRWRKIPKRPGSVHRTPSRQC

α4β2 NNRs = α4β2 NNRs (Homo sapiens, UniProt P17787+P43681); experiment: Binding to α4β2 NNRs
human 5HT3 receptor = target: T2, human 5HT3 receptor (Homo sapiens, UniProt P46098); experiment: Radioligand binding at human 5HT3 receptor; conditions: read-out: Inhibition of radioligand binding at human 5HT3 receptor
T2 sequence (P46098 24-478): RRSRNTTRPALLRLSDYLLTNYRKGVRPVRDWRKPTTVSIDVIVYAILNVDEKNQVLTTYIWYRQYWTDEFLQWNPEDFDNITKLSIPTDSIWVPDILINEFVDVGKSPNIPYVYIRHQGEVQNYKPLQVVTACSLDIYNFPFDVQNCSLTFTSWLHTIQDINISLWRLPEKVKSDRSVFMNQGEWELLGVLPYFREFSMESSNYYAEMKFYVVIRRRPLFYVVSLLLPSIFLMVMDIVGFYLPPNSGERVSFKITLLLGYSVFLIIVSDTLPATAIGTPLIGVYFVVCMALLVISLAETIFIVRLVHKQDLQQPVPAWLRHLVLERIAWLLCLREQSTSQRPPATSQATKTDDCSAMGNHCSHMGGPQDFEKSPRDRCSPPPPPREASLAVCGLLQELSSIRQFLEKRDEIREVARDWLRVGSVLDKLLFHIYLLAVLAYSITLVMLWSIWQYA

human α4β2 sub-type = human α4β2 sub-type (Homo sapiens, UniProt P17787+P43681); experiment: Electrophysiology, human α4β2 in Xenopus oocytes
M2 muscarinic receptors = target: T3, M2 muscarinic receptors (Homo sapiens, UniProt P08172); experiment: Competitive binding inhibition, M2 muscarinic
T3 sequence (P08172 1-466): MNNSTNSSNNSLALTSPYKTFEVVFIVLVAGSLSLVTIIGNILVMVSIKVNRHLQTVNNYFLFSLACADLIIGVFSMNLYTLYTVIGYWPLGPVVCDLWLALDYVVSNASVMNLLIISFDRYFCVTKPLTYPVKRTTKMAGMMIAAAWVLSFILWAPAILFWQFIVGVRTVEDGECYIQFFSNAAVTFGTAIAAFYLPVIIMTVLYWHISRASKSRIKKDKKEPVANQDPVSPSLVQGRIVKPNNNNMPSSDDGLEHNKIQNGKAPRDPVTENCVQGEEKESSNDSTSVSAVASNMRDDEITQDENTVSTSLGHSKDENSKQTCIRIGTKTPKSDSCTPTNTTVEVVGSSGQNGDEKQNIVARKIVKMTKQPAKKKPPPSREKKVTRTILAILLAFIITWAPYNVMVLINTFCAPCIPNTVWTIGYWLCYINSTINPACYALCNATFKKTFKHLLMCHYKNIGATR

rats [6] = experiment: Object recognition (OR) paradigm; assay type: in vivo
mouse 5HT3 receptor = target: T4, mouse 5HT3 receptor (Mus musculus, UniProt P23979); experiment: Radioligand binding at mouse 5HT3 receptor; conditions: read-out: Inhibition of radioligand binding at mouse 5HT3 receptor
T4 sequence (P23979 24-489): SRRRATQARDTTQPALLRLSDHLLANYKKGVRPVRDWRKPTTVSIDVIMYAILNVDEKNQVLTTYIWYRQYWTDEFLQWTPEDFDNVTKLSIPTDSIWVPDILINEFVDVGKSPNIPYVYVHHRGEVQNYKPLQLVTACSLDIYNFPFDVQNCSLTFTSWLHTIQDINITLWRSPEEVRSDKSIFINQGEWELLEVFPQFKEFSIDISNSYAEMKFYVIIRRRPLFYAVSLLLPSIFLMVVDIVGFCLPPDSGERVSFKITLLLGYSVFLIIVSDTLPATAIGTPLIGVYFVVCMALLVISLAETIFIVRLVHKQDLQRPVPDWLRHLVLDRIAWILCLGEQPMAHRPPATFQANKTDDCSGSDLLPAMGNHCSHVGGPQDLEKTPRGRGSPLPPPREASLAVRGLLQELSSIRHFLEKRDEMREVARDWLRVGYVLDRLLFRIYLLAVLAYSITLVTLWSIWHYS

rats [7] = conditions: 0.3 and 1.0 mg/kg s.c., apomorphine 1.0 mg/kg (FIG. 8)
Experimental: The reversal of apomorphine-induced locomotor activity (APO LOCO) assay was performed in accord with the description of Roux et al., Curr.

[8] = Pre-pulse inhibition (PPI), apomorphine-induced deficits; assay type: in vivo; conditions: subcutaneous pretreatment (FIG. 9)
human α7 NNRs = human α7 NNRs (Homo sapiens, UniProt P36544); experiment: cell-based; conditions: read-out: E. (Emax) of ACh response
Experimental: Mature (>9 cm) female Xenopus laevis African toads (Nasco, Ft. Atkinson, Wis.) were used as a source of oocytes. Prior to surgery, the toads were anesthetized by placing the animal in a 1.5 g/L solution of 3-aminobenzoic acid ethyl ester for 30 min. Oocytes were removed from an incision made in the abdomen.
Subsequently, stage 5 oocytes were isolated and injected with 50 mL (5-20 ng) each of the human α7 cRNA. Recordings were made 2 to 7 days after injection. Fresh acetylcholine (ACh) stock solutions were made daily in Ringer's solution.
Experiments were conducted using OpusXpress 6000A (Axon Instruments, Union City Calif.). […]
Each oocyte received an initial control application of ACh, then an experimental drug application, and then a follow-up control application of ACh (300 μM). Responses to experimental drug applications were calculated relative to the preceding ACh control responses in order to normalize the data, compensating for the varying levels of channel expression among the oocytes. […] Means and standard errors (SEM) were calculated from the normalized responses of at least four oocytes for each experimental concentration. For concentration-response relations, data derived from net charge analyses were plotted using Kaleidagraph 3.0.2 (Abelbeck Software; Reading, Pa.), and curves were generated from the Hill equation.

[9] = Solid state stability by XRPD, 40° C./75% RH; assay type: physicochemical; conditions: 1 week at 40° C./75% RH
Experimental: X-Ray Powder Diffraction patterns were collected either or both of two instruments. Some were collected on a Siemens D5000 diffractometer using CuKα radiation (40 kV, 40 mA), 0-0 goniometer, V20 divergence and receiving slits, a graphite secondary monochromator and a scintillation counter. The instrument was performance checked using a certified Corundum standard (NIST 1976). Samples run under ambient conditions were prepared as flat plate specimens using powder as received. Approximately 35 mg of the sample was gently packed into a cavity cut into polished, zero-background (510) silicon wafer. The sample was rotated in its own plane during analysis, scanning from 2° to 42° in steps of 0.05° at 4 seconds per step, using CuKα1 (λ=1.5406 Å).
The tosylate salt, specifically the crystalline mono salt, was confirmed and the diffraction pattern is shown in FIG. 14 using CuKα radiation (40 kV, 40 mA), 0-0 goniometer, V20 divergence and receiving slits, a graphite secondary monochromator, and a scintillation counter. […] Likely, the change is due to a more hydrated form.

rat α7 NNRs stably expressed in GH4C1 (mammalian) cells, sequence (Q05941 23-502): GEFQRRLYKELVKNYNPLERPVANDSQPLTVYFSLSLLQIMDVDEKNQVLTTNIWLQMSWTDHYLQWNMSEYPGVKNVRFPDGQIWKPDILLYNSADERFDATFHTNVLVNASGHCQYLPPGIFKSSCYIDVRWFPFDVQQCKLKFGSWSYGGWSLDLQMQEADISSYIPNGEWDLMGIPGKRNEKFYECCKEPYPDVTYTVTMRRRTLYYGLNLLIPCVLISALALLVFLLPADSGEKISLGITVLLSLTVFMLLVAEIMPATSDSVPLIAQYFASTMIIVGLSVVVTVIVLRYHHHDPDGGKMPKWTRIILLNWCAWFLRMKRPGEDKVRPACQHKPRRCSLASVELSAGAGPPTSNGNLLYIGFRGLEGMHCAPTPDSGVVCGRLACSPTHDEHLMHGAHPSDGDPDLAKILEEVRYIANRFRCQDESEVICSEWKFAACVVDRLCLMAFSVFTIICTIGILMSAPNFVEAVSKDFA
human α4β2 sub-type, sequence (P43681 29-627 limits assumed): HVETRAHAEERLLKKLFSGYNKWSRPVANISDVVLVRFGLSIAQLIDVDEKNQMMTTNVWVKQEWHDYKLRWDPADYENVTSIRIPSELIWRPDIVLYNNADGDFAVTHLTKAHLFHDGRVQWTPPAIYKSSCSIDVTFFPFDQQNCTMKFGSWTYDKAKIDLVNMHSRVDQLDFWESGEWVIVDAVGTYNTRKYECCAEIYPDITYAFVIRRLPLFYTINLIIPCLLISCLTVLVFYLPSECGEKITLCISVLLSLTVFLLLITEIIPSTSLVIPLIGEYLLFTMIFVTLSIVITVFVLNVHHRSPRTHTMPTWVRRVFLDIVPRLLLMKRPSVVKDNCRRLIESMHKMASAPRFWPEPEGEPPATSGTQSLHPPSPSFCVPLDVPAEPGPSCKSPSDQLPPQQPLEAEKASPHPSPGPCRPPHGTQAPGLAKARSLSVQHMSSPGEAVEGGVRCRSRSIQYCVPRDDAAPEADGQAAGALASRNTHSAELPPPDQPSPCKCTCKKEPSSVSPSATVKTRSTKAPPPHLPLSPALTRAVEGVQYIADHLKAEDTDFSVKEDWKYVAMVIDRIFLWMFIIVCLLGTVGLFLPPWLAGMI
human α4β2 sub-type, sequence (P17787 26-502): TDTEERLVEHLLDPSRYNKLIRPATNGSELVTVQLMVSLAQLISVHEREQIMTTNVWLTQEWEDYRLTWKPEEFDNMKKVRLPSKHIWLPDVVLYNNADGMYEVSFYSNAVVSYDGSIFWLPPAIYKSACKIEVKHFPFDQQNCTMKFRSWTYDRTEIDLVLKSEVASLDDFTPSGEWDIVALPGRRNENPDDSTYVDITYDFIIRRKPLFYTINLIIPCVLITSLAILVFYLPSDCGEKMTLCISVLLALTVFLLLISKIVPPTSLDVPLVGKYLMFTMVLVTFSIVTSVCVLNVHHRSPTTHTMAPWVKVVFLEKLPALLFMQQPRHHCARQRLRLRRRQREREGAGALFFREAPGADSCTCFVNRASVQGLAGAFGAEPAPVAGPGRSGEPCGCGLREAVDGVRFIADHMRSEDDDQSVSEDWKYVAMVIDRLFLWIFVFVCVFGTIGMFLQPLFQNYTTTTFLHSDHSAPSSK
human α7 NNRs, sequence (P36544 23-502): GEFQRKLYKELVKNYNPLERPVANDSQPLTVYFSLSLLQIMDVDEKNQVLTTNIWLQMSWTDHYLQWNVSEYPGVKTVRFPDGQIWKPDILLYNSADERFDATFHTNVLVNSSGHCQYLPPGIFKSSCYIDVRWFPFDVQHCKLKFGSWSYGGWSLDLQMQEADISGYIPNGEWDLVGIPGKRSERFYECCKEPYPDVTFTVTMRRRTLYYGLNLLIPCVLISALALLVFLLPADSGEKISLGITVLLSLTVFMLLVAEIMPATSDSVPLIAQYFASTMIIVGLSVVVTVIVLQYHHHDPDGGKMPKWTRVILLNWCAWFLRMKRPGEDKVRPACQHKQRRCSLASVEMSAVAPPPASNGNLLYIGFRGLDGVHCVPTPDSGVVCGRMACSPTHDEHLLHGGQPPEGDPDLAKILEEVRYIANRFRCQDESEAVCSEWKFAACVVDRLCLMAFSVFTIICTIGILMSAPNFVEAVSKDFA
α4β2 NNRs, sequence (P43681 29-627 limits assumed): as the sequence (P43681 29-627 limits assumed) above
α4β2 NNRs, sequence (P17787 26-502): as the sequence (P17787 26-502) above

## Cl.O=C(N[C@@H]1C2CCN(CC2)[C@H]1Cc1cccnc1)c1cc2ccccc2o1 [hydrochloric acid salt]
[1]
  Water solubility: good water solubility
[2]
  Hygroscopicity: low hygroscopicity

## O=C(N[C@@H]1C2CCN(CC2)[C@H]1Cc1cccnc1)c1cc2ccccc2o1 (single isomer, unassigned) [Compound A]
[3]
  Performance in radial arm maze (working memory): significantly increased the number of correct choices prior to error
[4]; GH4-C1, read-out: Emax relative to acetylcholine (ACh)
  Emax: 93%
[4]; rat α7 in GH4C1 cells, FIGS. 1A.2 and 1B
  Functional activity at the α7 subtype: potent agonism throughout the concentration range of 1-50 nM
[1]
  Water solubility: very limited water solubility
Rats [5]
  Effect on MK-801 induced deficits in the OR task: tends to reverse MK-801 induced deficits
M1 muscarinic receptors
  Interaction with M1 muscarinic receptors: minimal to no interaction
α4β2 NNRs
  Ki: > 2000 nM
Human 5HT3 receptor
  inhibition at 10 µM: 25%
Human α4β2 sub-type
  Activation of human α4β2: no detectable activation
  Decreases in subsequent control responses to ACh at α4β2: no significant decreases
M2 muscarinic receptors
  Interaction with M2 muscarinic receptors: minimal to no interaction
Rats [6]; 0.3 mg/kg orally (FIG. 6)
  Duration of cognitive effects in OR: at least 18 hours
Rats [6]; 0.3 mg/kg p.o. sub-acute, 30 min, 2 h, 6 h and 18 h after final administration
  Time investigating novel versus familiar object: significantly (P<0.05) more time investigating object B (novel) than object A (familiar)
Rats [6]; rats, 0.3 and 1 mg/kg i.p. (FIG. 3)
  Cognitive effects in object recognition, i.p.: potent activity
Rats [6]; rats, p.o., 0.3-10 mg/kg (FIG. 4)
  Cognitive effects in object recognition, p.o.: potent activity; also recorded: activity across a wide dose range
Mouse 5HT3 receptor
  inhibition at 10 µM: 59%
Rats [7]
  Effect on apomorphine-induced locomotor hyperactivity: displays effectiveness in reversing apomorphine-induced locomotor activity
[8]
  Effect on apomorphine-induced prepulse inhibition deficits: displays effectiveness
Human α7 NNRs
  Emax: 100%

## Cc1ccc(S(=O)(=O)O)cc1.O=C(N[C@@H]1C2CCN(CC2)[C@H]1Cc1cccnc1)c1cc2ccccc2o1 [p-toluenesulfonic acid salt]
[1]
  Water solubility: good water solubility
[2]
  Hygroscopicity: low hygroscopicity
[9]
  XRPD form after storage: reveals a change but the sample is still Form 1

## O=C(N[C@@H]1C2CCN(CC2)[C@H]1Cc1cccnc1)c1cc2ccccc2o1.O=C(O)/C=C\C(=O)O [maleic acid salt]
[1]
  Water solubility: good water solubility
[2]
  Hygroscopicity: low hygroscopicity

## O=C(N[C@@H]1C2CCN(CC2)[C@H]1Cc1cccnc1)c1cc2ccccc2o1.O=P(O)(O)O [phosphoric acid salt]
[1]
  Water solubility: good water solubility
[2]
  Hygroscopicity: low hygroscopicity
